Values of other authors in patent publication US20160213008A1, “ULTRASONIC MICRO-DROPLET RELEASE OF MATRIX BOUND FOOD DERIVED ANTIMICROBIALS” (priority 2015, published 2016).

Conditions: Cavallito and colleagues 1944

SMILES	antibacterial and antifungal / antimicrobial activity
C=CCSSC=CC[S+]([O-])CC=C (mixture of isomers) [Ajoene]	shows antimicrobial properties
C=CCS[S+]([O-])CC=C (centres unmarked) [allicin]	attributable
